Measured values published in a melting point compilation (Tetko et al.; mined from patent text by program, amines drawn as free bases though some values may be those of a salt).

melting point [°C] | Structure (SMILES)
174 | Cn1c(=O)cc(-c2cccc(Cl)c2)c2cc(C(=O)c3ccc([N+](=O)[O-])cc3)ccc21
183 | CNC(=O)c1cccc(NC(=O)CC2CCCCC2)c1
95 | Cc1noc(CC(=O)O)n1
166 to 168 | OC(Cn1c(-c2ccc(Cl)cc2)nc2cccnc21)c1ccccc1 (stereo unspecified)
161 to 163 | c1ccc(CN2CCc3[nH]c4cccc(-c5ccccc5)c4c3CC2)cc1
73 to 75 | CCC(c1ccc(C(=O)OC)cc1)C(C)NCC(O)c1ccc(O)c(CO)c1 (stereo unspecified)
201 to 202 | COC(=O)NN=C(C)c1nc(-c2ccccc2)[nH]c1C
114 to 117 | CC(=O)NNc1ccc(N(Cc2ccccc2)C(=S)Nc2ccccc2)cc1
112 to 114 | CNS(=O)(=O)c1cc(C(=O)CCC(=O)OC)ccc1Cl
152 to 153 | CCOc1cc(NC(=S)NS(=O)(=O)c2ccc(C)cc2)ccn1
94 to 96 | O=C1C(c2c[nH]c3ncccc23)=C(c2cn(S(=O)(=O)c3ccccc3)c3ccccc23)C(=O)N1COCc1ccccc1
95 to 97 | O=C(NCC1CCN(CC2COc3ccccc3O2)CC1)c1ccccn1 (stereo unspecified)
221 to 223 | COc1ccc(-c2c(Cl)c(CN3C(=O)CCC3=O)nc3sc4c(c23)CC(C)(C)C(OCc2ccccc2)C4)cc1 (stereo unspecified)
140 to 141 | COC1=CC(=O)N/C1=C\C(C)C
145 to 146 | c1ccc2c(c1)CCc1ccccc1C2CNc1ccncc1
192 to 194 | Nc1n[nH]c(NC(=O)c2ccc3ccccc3c2)n1
152 to 153 | O=C(N[C@@H]1CCc2ccccc21)C(F)(F)F
205 to 207 | OP(O)C(NC(c1ccccc1)c1ccccc1)c1ccc2ccccc2c1 (stereo unspecified)
81 to 83 | O=C(O)C(Cc1ccccc1)Oc1ccc(-c2ccc(-c3c(Cc4ccccc4)sc4ccccc34)cc2)cc1Br (stereo unspecified)
94 | CCOC(=O)c1cc2cc(CC)ccc2[nH]1
84 to 87 | COC(=O)C(Cc1ccc(OCCn2c(=O)oc3cc(C(O)c4ccccc4)ccc32)cc1)C(=O)OC (stereo unspecified)
75 to 77 | CCC(=O)N(CC)c1ccc(C(=O)C=CN(C)C)cc1

melting point [°C] | Structure (SMILES)
76 to 77 | CC(C)c1nc2cc(COc3ccc(CCCn4ccnc4)cc3)ccc2o1
> 177 | C1=COc2ccc3[nH]c4c(c3c2=C1)C=CN=CC=4
45 to 47 | CCCCCCCCCN(CCC)CCC(O)(P(=O)(O)O)P(=O)(O)O
157 to 159 | Cc1nc(Cl)c2c(C)cn(-c3c(Cl)cc(Br)cc3Br)c2n1
296 to 300 | O=[N+]([O-])c1ccc2c(Nc3ccncc3)noc2c1
95 to 99 | COC(=O)CCCNC(=O)C(COS(C)(=O)=O)NS(=O)(=O)c1ccc(Cl)cc1 (racemic)
252 to 253 | Nc1cc(C#Cc2ccccc2)c(-c2cc([N+](=O)[O-])c(N)cc2C#Cc2ccccc2)cc1[N+](=O)[O-]
173 to 175 | COCc1c(C(=O)OC(C)(C)C)ncc2[nH]c3ccc(Oc4ccc(Br)cn4)cc3c12
165 to 167 | NS(=O)(=O)Cc1csc(-c2ccc(Cl)c(Cl)c2)n1
41 to 42 | CCCCCCCCCCC(C)(C)C(=O)NC1CCCNC(=O)C1 (stereo unspecified)
169 to 170 | C#Cc1ccc2c(c1)C1(c3ccccc3-c3ccccc31)c1ccccc1-2
218 | Cc1cc(-c2ccc(C(F)(F)F)cc2)nc(-c2ccnc(-c3cccc(S(N)(=O)=O)c3)c2)n1
165 to 168 | CCCc1c2nc(C(=O)OCC)cc(C)c2cc2c(=O)cc(C(=O)OCC)oc12
137 to 139 | COCCOc1ncnc2[nH]ccc12
154 | Cc1ccc(NC(=O)c2ccc(/C=C/C(=O)NO)cc2)cc1Nc1nc(-c2cccnc2)cs1
149 to 151 | O=C(C=Cc1ccc(O)cc1)NCCO
175 | Cc1ccc(-c2ccc(S(=O)(=O)Nc3onc(C)c3Br)s2)cc1
184 to 189 | CC(C)C(C)(C(N)=O)N1C(=O)c2ccc3ccn(C)c3c2C1=O (stereo unspecified)
113 to 116 | c1cc(CC[C@H]2CNCCN2)ccn1
77 to 78 | O=C1c2cc(OC(F)(F)F)ccc2S(=O)(=O)N1CCCCBr
159 to 161 | CCC(C)Oc1nc(N)nc2c1ncn2C1C=CC(CO)C1 (stereo unspecified)
45 to 46 | COCCCc1nc(C(F)F)ccc1C(=O)C1C(=O)C2CCC(C2)C1=O (stereo unspecified)

melting point [°C] | Structure (SMILES)
41 | CCCc1ccc(-c2ccc(-c3ccc(CC)cc3)cc2F)s1
235 to 239 | O=C(Nc1nc(=O)c2cnn3c2n1CC=C3c1cccc(C(F)(F)F)c1)c1ccccc1
152 to 156 | CCOC=C(C=O)c1ccc(Br)cc1
113 to 115 | Fc1ccc2c(c1)Cc1sc(NCCCN3CCOCC3)nc1-2
75 to 76 | Nc1c(Cl)cc(C(O)CNCCCCCOCCc2ccc(F)cc2)cc1Cl (stereo unspecified)
35 to 35.5 | CC(I)CC(F)(F)C(F)(F)C(F)(F)C(F)(F)CC(C)I (stereo unspecified)
186 to 189 | COc1cccc(Nc2nc(OCC3CCCCC3)c3[nH]cnc3n2)c1
163 | Fc1cccc(F)c1Cn1c(-c2ccccc2)nc2ccccc21
163 to 165 | CCCC(=O)c1cnc2c(OC)cccc2c1Nc1ccc(OC(=O)CC)cc1C
227 | NS(=O)(=O)c1ccc(CCI)cc1
101 to 102 | COc1ccccc1OCCNCCCc1c[nH]c2ccccc12
78 to 80 | C=CCOC(=O)c1cc(OCC=C)c(OCC=C)c(S(C)(=O)=O)c1
158 to 161 | O=C(N[C@@H](Cc1ccc(OCCc2coc(-c3ccccc3)n2)cc1)C(=O)O)c1ccc(Cl)cc1
118 to 119 | CC1(C)C2CC=C(c3ccc(C(=O)N4Cc5cccn5Cc5ccccc54)cc3)C1C2 (stereo unspecified)
99.7 | O=C1c2ccccc2C(=O)N1Cc1ccc(C2=COC(c3cc(Cl)cc(Cl)c3)(C(F)(F)F)C2)cc1Cl (stereo unspecified)
93 to 94 | Cc1ccc(C)c(OCCCC(C)(C)C(=O)Nc2cccc([N+](=O)[O-])c2)c1
118 to 119 | Cc1oc(-c2ccco2)nc1COc1ccc(COc2nn(Cc3ccccc3)cc2C=O)cc1
127 to 130 | Cc1cc(C=O)ccc1-c1ccccc1C(F)(F)F
129 to 145 | Cc1ccc(N2N=C3c4cc(C(C)O)sc4CCC3CC2=O)cc1 (stereo unspecified)
303 to 305 | COc1ccc(C=Cc2ccccc2)c(-c2ccc(-c3cc(OC)ccc3C=Cc3ccccc3)n2-c2ccc(C)cc2)c1
149 to 151 | O=c1c(-c2ccccc2)cc(Cl)c2n1C=CSc1ccsc1-2
160 to 162 | O=C(O)c1c[nH]c(SCc2ccccc2)c1SCc1ccccc1

Structure (SMILES) | melting point [°C]
CCCN1CCC(c2ccccc2)=C(C(=O)NOCc2ccccc2)C1 | 143 to 145
CN(C)CCOC1(O)C=CC2=NC(C(=O)N3CC(CCl)c4c3ccc3ncccc43)=CC2=C1 (stereo unspecified) | 209 to 215
S=C1CN=C(c2ccc(Cl)cc2)c2cc(I)ccc2N1 | 260 to 262
CC1=C2CCC3C(CCC4(C)C3CCC4(C)O)C2(C)CC(=CO)C1=O (stereo unspecified) | 182 to 188
C[C@H](Cc1ccc(-c2cc(F)c(C#N)c(F)c2)cc1)c1ccccc1 | 60.7 to 62.2
